Counter-ions that a name gives are not always drawn. Like-named read-outs stand apart in the source and are kept apart here.
How the values were obtained:
[1] = Hydrolysis of TRI 50b in acid conditions (HPLC assay); assay type: physicochemical; conditions: for example of an HPLC assay
Excerpt: It has been discovered that TRI 50b tends to hydrolyse.

[2] = test system: platelet procoagulant activity; test: Inhibition of platelet procoagulant activity (washed platelets, prothrombin activation); assay type: cell-based; conditions: agonist Thrombin (1.15 nM)
Excerpt: Platelet pro-coagulant activity may be observed as the increase, in rate of activation of prothrombin by factor Xa in the presence of factor Va upon the addition of platelets pretreated with thrombin, caused by thrombin alone, collagen alone or a mixture of thrombin and collagen. This property is due to an increase in anionic phospholipid on the surface of the platelet with concomitant release of microvesicle from the surface. This is an essential physiological reaction and people whose platelets have reduced ability to generate procoagulant activity (Scott syndrome) show an increased tendency for bleeding.
Washed platelets were treated with either 1.15 nM thrombin, 23 μg/ml collagen or a mixture of both at the same concentration at 37° C. TRI 50b was added either for 1 minute prior to the addition of activator or immediately after the incubation with activator. Platelet procoagulant activity was determined as described previously (Goodwin C A et al, Biochem J. 1995 8, 308: 15-21).

human α-thrombin = human α-thrombin (Homo sapiens, UniProt P00734); conditions: reported by J. Deadman et al, J. Med. Chem. 1995; cited from earlier work
platelet rich thrombus = test: Rabbit extracorporeal shunt model; assay type: in vivo
Excerpt: The technique describes an animal model in which a platelet rich thrombus is produced. The activity of TRI 50b and heparin are compared.
The carotid artery and jugular vein of anaesthetised rabbits were used to create an extracorporeal circuit containing a suspended foreign surface (silk thread). Thrombus deposition is initiated by creation of high sheer stress turbulent arterial blood flow, platelet activation, followed by coagulation in the presence of thrombogenic surfaces. Histopathological studies have shown that the thrombus is platelet rich.
NZW rabbits (males 2.5-3.5 kg) were used. The animals were allowed food and water up to the induction of anaesthesia.
Animals were premedicated with […] (Hypnorm) 0.15 ml total by intramuscular injection. General anaesthesia was induced with methohexitone (10 mg/ml) to effect, followed by endotracheal intubation. Anaesthesia was maintained with isoflurane (1-2.0%) carried in oxygen/nitrous oxide.
The animals were placed in dorsal recumbency and the ventral cervical region prepared for surgery. The left carotid artery and right jugular vein were exposed. The artery was cannulated with a large Portex® catheter (yellow gauge), cut to a suitable length. The vein was cannulated with a Silastic® catheter. The shunt comprised of a 5 cm length of ‘auto analyser’ line (purple/white gauge). Joins to the shunt on the arterial side were made with intermediate size Silastic® tubing. The shunt was filled with saline before exposure to the circulation. The right femoral artery was cannulated for the measurement of blood pressure.
The central section of the shunt contained a thread 3 centimetres in length. This consisted of 000 gauge Gutterman sewing silk so as to give four strands with a single knot at the end. (The knot section was outside the shunt).
Blood flow velocity was determined by use of ‘Doppler’ probes (Crystal Biotech). A silastic probe was positioned over the carotid artery at the point of insertion of the arterial catheter. Flow was recorded on a chart recorder using heat sensitive paper.

washed platelets = test: Aggregation of washed platelets; assay type: cell-based
[3] = i.v. pharmacokinetics in rats; assay type: in vivo; conditions: plasma, rat, 1.0 mg/kg iv; for half-life: read-out: Elimination half life; for MRT: read-out: Mean Residence Time (converted)
Experimental: Rats, body weight circa 250-300 g were used.
Both compounds were given at a dose of 1.0 mg/kg iv.
This was dosed at 1.33 ml/kg (equivalent to 30 mg/kg).

Rat tail bleeding model = assay type: in vivo
Experimental: Bleeding times were determined in a rat tail bleeding model following intravenous administration of heparin and TRI 50b. The doses employed were chosen on the basis of their efficacy in the rat Wessler and dynamic models and were as follows:
Rats were anaesthetised with sodium pentabarbitone at 60 mg/kg (2.0 ml/kg of 30 mg/ml solution by ip. injection). Supplemental anaesthetic was given ip. as required.
A jugular vein was cannulated for the administration of test compound. The trachea was also cannulated with a suitable cannula and the animals allowed to breathe ‘room air’ spontaneously.
These were given in the appropriate vehicle at 1.0 ml/kg intravenously. Heparin was administered in saline, whilst TRI 50b was dissolved in ethanol, and then the resultant solution added to water for injection (1 part ethanol to 5 parts water).
Two minutes following compound administration the distal 2 mm of the animal's tail was sectioned with a new scalpel blade and the tail immersed in warm saline (37° C.) contained in a standard ‘universal’ container, so that the blood stream was clearly visible. The bleeding time recording was started immediately following transection until the cessation of blood flow from the tip of the tail.

[4] = Tolerability in beagle dogs after i.v. dose; assay type: in vivo; conditions: dog, 1.0 mg/kg i.v., total duration of the study
Experimental: Blood samples were taken into 3.8% tri-sodium citrate (1+8) at pre dose, 2, 5, 10, 20, 30, minutes post dose and then at 1, 2, 3, 4, 6, 8, 12 and 24 hours post dose. Plasma was prepared by centrifugation and frozen at minus 20° C. pending analysis.

[5] = Stability: HPLC-PDA assay before and after drying over phosphorus pentoxide for 1 week; assay type: physicochemical
Experimental: An assay of TRI 50c and its sodium and lysine salts before and after drying.
For sample analysis, 5 mg of dried and non-dried material was weighed in a 5 mL volumetric flask and dissolved in 1 mL acetonitrile and filled up with demineralised water to 5 mL.
The quantitative evaluation was performed using an HPLC-PDA method.

Thrombin = molecular target: T1, Thrombin (Homo sapiens, UniProt P00734); test: Thrombin amidolytic assay (Vmax, S2238); assay type: biochemical; conditions: FIG. 1; TRI 50b as external control
T1 construct: Thrombin obtained from HTI, via Cambridge Bioscience; purchased HTI, via Cambridge Bioscience
Experimental: Chromogenic substrate S2238 dissolved to 4 mM (25 mg+10 mI) in water. Diluted to 50 μM with assay buffer for use in assay at 5 μM. (S2238 is H-D-Phe-Pip-Arg-pNA).
Thrombin obtained from HTI, via Cambridge Bioscience, and aliquoted at 1 mg/ml with assay buffer. Dilute to 100 ng/ml with assay buffer and then a further 1 in 3 for use in the assay.

COCCC[C@H](NC(=O)[C@@H]1CCCN1C(=O)[C@@H](Cc1ccccc1)NC(=O)OCc1ccccc1)B1OC(C)(C)C(C)(C)O1 [TRI 50b, Cbz-(R)-Phe-Pro-BoroMpg-OPinacol]
hydrolysis to the acid form, half life [1]: short half life | IC50 ([2]; TRI 50b added 1 minute prior to activator, read-out: IC50 plus pre-incubation): 8 nM | IC50 ([2]; TRI 50b added after incubation with activator, read-out: IC50 without incubation): 3000 nM | Ki (human α-thrombin): 7 nM | ANTITHROMBOTIC ACTIVITY (platelet rich thrombus; 3.0 mg/kg iv): Active | bleeding in shunt model (platelet rich thrombus; 3 mg/kg to 10 mg/kg iv): without bleeding | ANTITHROMBOTIC ACTIVITY (platelet rich thrombus; 10 mg/kg iv): Active | effect on ADP, collagen or epinephrine induced aggregation of washed platelets (washed platelets): does not have an effect | clearance [3]: 10 mL/min/kg | half-life [3]: 35 min | MRT [3]: 46 min | Bleeding time min (±SEM) (Rat tail bleeding model; 5 mg/kg iv): 11.3 ± 1.2 min | Bleeding time min (±SEM) (Rat tail bleeding model; 10 mg/kg iv): 30.4 ± 5.2 min

COCCC[C@H](NC(=O)[C@@H]1CCCN1C(=O)[C@@H](Cc1ccccc1)NC(=O)OCc1ccccc1)B(O)O [TRI 50c sodium salt, Cbz-(R)-Phe-(S)-Pro-(R)-Mpg-B(OH)2 monosodium salt]
tolerability [4]: tolerated well with no adverse events | stability: effect of drying on purity ([5]; in words): not significantly reduced

COCCC[C@H](NC(=O)[C@@H]1CCCN1C(=O)[C@@H](Cc1ccccc1)NC(=O)OCc1ccccc1)B(O)O [TRI 50c, Cbz-(R)-Phe-(S)-Pro-(R)-boroMpg-OH]
Purity (% area) ([5]; non-dried): 85.54 % area | Amount ([5]; non-dried, 5 mg in 5 mL): 947.3 µg/mL | clearance [3]: 11.3 mL/min/kg | half-life [3]: 36.6 min | MRT [3]: 45 min

COCCC[C@H](NC(=O)[C@@H]1CCCN1C(=O)[C@@H](Cc1ccccc1)NC(=O)OCc1ccccc1)B([O-])O.COCCC[C@H](NC(=O)[C@@H]1CCCN1C(=O)[C@@H](Cc1ccccc1)NC(=O)OCc1ccccc1)B([O-])O.[Mg+2] [magnesium salt of TRI 50c]
activity in thrombin amidolytic assay (Vmax) (Thrombin): same activity as TRI 50b

Reference: US7371729B2, “Boronic acid salts useful in parenteral formulations” (Trigen Limited, priority 2002, dated 2008)
